Measured values reported in article PMC8197367, “Comparative Antimicrobial Activity of Hp404 Peptide and Its Analogs against Acinetobacter baumannii” (International Journal of Molecular Sciences, 2021).
In brackets after ≈: the same amount, converted by molar mass. Where no end group is shown, it is not given here.

Legend:
A. baumannii KCTC 2508 [1] = test: Biofilm inhibition, crystal violet assay; assay type: cell-based, Acinetobacter baumannii; conditions: NB with 0.2% glucose, 24 h, 37 °C, 595 nm, highest concentration 25 μM
Procedure: (§1) Acinetobacter baumannii KCTC 2508, #3, #4, 409081 and 719705 were incubated overnight at 37°C to mid-log phase in NB medium. Bacterial cells (5 × 10^5 CFU/mL) were suspended in NB containing 0.2% glucose. A final concentration of 25 μM of peptides and antibiotics (meropenem and polymyxin B) was prepared with the bacterial suspensions in 96-well tissue culture plates and incubated at 37 °C for 24 h. The culture media was carefully removed, and biofilms were fixed with 100% methanol for 15 min and then stained with 0.1% crystal violet for 1 h and rinsed three times with distilled water. After air-drying, the biofilm mass was dissolved in 100 μL of 95% ethanol and measured at 595 nm using a microplate reader.

A. baumannii 409081 [2] = test: Biofilm inhibition, crystal violet assay; assay type: cell-based, Acinetobacter baumannii; conditions: NB with 0.2% glucose, 24 h, 37 °C, 595 nm, highest concentration 25 μM
Procedure: as §1

A. baumannii #3 [3] = test: Biofilm inhibition, crystal violet assay; assay type: cell-based, Acinetobacter baumannii; conditions: NB with 0.2% glucose, 24 h, 37 °C, 595 nm, highest concentration 25 μM
Procedure: as §1

A. baumannii 719705 [4] = test: microbe, parasite or virus in culture
Excerpt: (§2) Staphylococcus aureus ATCC 25923, S. aureus ATCC 29213, P. aeruginosa ATCC 27853, Escherichia coli ATCC 25922 and Salmonella typhimurium ATCC 14028 strains were obtained from the American Type Culture Collection (ATCC, Manassas, VA, USA). Listeria monocytogenes KCTC 3710, Bacillus cereus KCTC 1012, K. pneumoniae KCTC 2208 and A. baumannii KCTC 2508 were obtained from the Korean Collection for Type Cultures (KRIBB, Daejeon, South Korea). Clinical isolates of A. baumannii strains were collected from Eulji University Hospital (Seoul, South Korea).
(§3) Hp1404 and its analog peptides activity against both gram-positive and gram-negative bacterial strains were tested using the broth microdilution method. Briefly, S. aureus (ATCC 25923, ATCC 29213) and B. cereus KCTC 1012 were cultured overnight at 37 °C in tryptic soy broth (TSB). P. aeruginosa ATCC 27853, K. pneumoniae KCTC 2208, A. baumannii KCTC 2508 and S. typhimurium ATCC 14028 were cultured overnight at 37 °C in nutrient broth (NB). E. coli ATCC 25922 was cultured overnight at 37 °C in luria bertani (LB). L. monocytogenes KCTC 3710 was cultured overnight at 37 °C in brain heart infusion (BHI). The cultures were diluted with fresh medium at a density of 2 × 10^5 CFU/mL. Peptides were serially diluted in sodium phosphate buffer (pH 7.2) to a final concentration of 25 μM. In a 96-well plate, 50-μL bacterial aliquots were mixed with 50 μL peptide solution. After incubation at 37 °C for 18 h, the MIC was determined using a plate reader at 600 nm. The experiment was performed in triplicate.

A. baumannii #2 = test: microbe, parasite or virus in culture; conditions: 18 h
Excerpt: as §2, §3

A. baumannii 409081 [5] = test: microbe, parasite or virus in culture
Excerpt: as §2, §3

A. baumannii #4 = test: microbe, parasite or virus in culture; conditions: 18 h
Excerpt: as §2, §3

A. baumannii #3 [6] = test: microbe, parasite or virus in culture; conditions: 18 h
Excerpt: as §2, §3

A. baumannii 907233 = test: microbe, parasite or virus in culture
Excerpt: as §2, §3

A. baumannii biofilms = test: Live biofilm viability assay, SYTO 9 imaging; assay type: cell-based, Acinetobacter baumannii; conditions: preformed biofilm treated with 50 μM for 24 h; A. baumannii including strains isolated from patients; EVOS FL Auto 2
Procedure: An A. baumannii biofilm viability assay was performed by staining with Syto9 dye. Acinetobacter baumannii strains were diluted to approximately 5 × 10^5 CFU/mL and incubated for 24 h. Biofilms of A. baumannii strains were washed with PBS and treated with 25 and 50 μM peptides and antibiotics for 24 h. Biofilms were stained with SYTO 9 diluted in PBS and the biofilm was visualized using an EVOS™ FL Auto 2 Imaging System (Thermo Fisher Scientific, Waltham, MA, USA).

B. cereus KCTC 1012 = test: MIC, broth microdilution; assay type: cell-based, Bacillus cereus; conditions: two-fold broth microdilution, TSB, 2 × 10^5 CFU/mL, 37 °C, 18 h, read at 600 nm, three independent experiments
Procedure: (§4) The experiment was performed in triplicate.

[7] = system: S. typhimurium ATCC 14028; test: MIC, broth microdilution; assay type: cell-based, Salmonella typhimurium; conditions: two-fold broth microdilution, NB, 2 × 10^5 CFU/mL, 37 °C, 18 h, read at 600 nm, three independent experiments
Procedure: as §4

mouse red blood cells = test: Hemolytic assay; assay type: cell-based; conditions: 50 μM peptide (highest tested concentration); 8% mouse red blood cells in PBS, 1 h, 37 °C, absorbance 414 nm, vs 0.1% Triton X-100
Procedure: The hemolytic activity of the peptides against mouse erythrocytes was determined using red blood cells. Fresh mouse red blood cells were washed three times and resuspended in PBS to attain an 8% dilution. Peptides were serially diluted to a final concentration of 50 μM. Next, 100 µL peptide solution was added to 100 μL of mouse red blood cells, wrapped with aluminum foil and incubated for 1 h at 37 °C. The mixture was then centrifuged at 1500× g for 10 min. The supernatant was transferred into a new 96-well plate, and the absorbance of the supernatant was measured at 414 nm. As positive and negative controls, […] in mouse red blood cells were used. Hemolysis was evaluated according to the following equation:
Hemolysis (%) = [(Abs414 nm in the peptide solution − Abs414 nm in PBS)/(Abs414 nm in 0.1% Triton X-100 − Abs414 nm in PBS)] × 100.

[8] = calcein-loaded LUVs, Figure 4c
Procedure: Peptide-induced membrane permeability was monitored be measuring calcein dye emission in calcein-loaded LUVs. We prepared the lipid mixture, and PC:CH (2:1, w/w) and PC:CH:SM liposomes (1:1:1, w/w) were prepared with 70 mM calcein buffer. A Sephadex G-50 column was used to separate calcein-loaded liposomes from free calcein dye. The LUVs (10 μM) were mixed with various concentrations of the peptide on a 96-well black plate. The fluorescence intensity was measured at excitation and emission wavelengths of 480 and 520 nm, respectively.

K. pneumoniae KCTC 2208 = test: MIC, broth microdilution; assay type: cell-based; conditions: two-fold broth microdilution, NB, 2 × 10^5 CFU/mL, 37 °C, 18 h, read at 600 nm, three independent experiments
Procedure: as §4

P. aeruginosa ATCC 27853 = test: MIC, broth microdilution; assay type: cell-based; conditions: two-fold broth microdilution, NB, 2 × 10^5 CFU/mL, 37 °C, 18 h, read at 600 nm, three independent experiments
Procedure: as §4

A. baumannii KCTC 2508 [9] = test: MIC, broth microdilution; assay type: cell-based, Acinetobacter baumannii; conditions: two-fold broth microdilution, NB, 2 × 10^5 CFU/mL, 37 °C, 18 h, read at 600 nm, no added salt, three independent experiments
Procedure: as §4

S. aureus ATCC 29213 = test: MIC, broth microdilution; assay type: cell-based, Staphylococcus aureus; conditions: two-fold broth microdilution, TSB, 2 × 10^5 CFU/mL, 37 °C, 18 h, read at 600 nm, three independent experiments
Procedure: as §4

S. aureus ATCC 25923 = test: MIC, broth microdilution; assay type: cell-based, Staphylococcus aureus; conditions: two-fold broth microdilution, TSB, 2 × 10^5 CFU/mL, 37 °C, 18 h, read at 600 nm, three independent experiments
Procedure: as §4

[10] = system: L. monocytogenes KCTC 3710; test: MIC, broth microdilution; assay type: cell-based, Listeria monocytogenes; conditions: two-fold broth microdilution, BHI, 2 × 10^5 CFU/mL, 37 °C, 18 h, read at 600 nm, three independent experiments
Procedure: as §4

HaCaT cells = conditions: 50 μM peptide, 24 h, MTT assay
Procedure: The cytotoxicity of the peptides against mammalian cells was calculated using the MTT assay. Human keratinocyte HaCaT cells were incubated in Dulbecco’s modified Eagle’s medium (DMEM) supplemented with 10% fetal bovine serum and 1% penicillin at 37 °C with 5% CO2. HaCaT cells were added at 2 × 10^5 cells/mL to DMEM supplemented with 10% fetal bovine serum and placed in 96-well plates. The plates were incubated overnight at 37 °C in a CO2 incubator. Peptides were serially diluted two-fold in DMEM, added to the cell cultures and incubated for 24 h at 37 °C. MTT solution (5 mg/mL) was added to each well and incubated for 1 h at 37 °C. The media was discarded, and the formazan crystals were dissolved in 100 μL dimethyl sulfoxide. The absorbance was measured using a Versa-Max microplate ELISA reader (Molecular Devices, Sunnyvale, CA, USA) at 570 and 650 nm. As a […], 0.1% Triton X-100 was used.

Calcein leakage assay [11] = conditions: PC:CH LUVs (10 μM) loaded with calcein; excitation 480 nm, emission 520 nm; various peptide concentrations
Procedure: (§5) Peptide-induced membrane permeability was monitored be measuring calcein dye emission in calcein-loaded LUVs [49]. We prepared the lipid mixture, and PC:CH (2:1, w/w) and PC:CH:SM liposomes (1:1:1, w/w) were prepared with 70 mM calcein buffer. A Sephadex G-50 column was used to separate calcein-loaded liposomes from free calcein dye. The LUVs (10 μM) were mixed with various concentrations of the peptide on a 96-well black plate. The fluorescence intensity was measured at excitation and emission wavelengths of 480 and 520 nm, respectively.

Calcein leakage assay [12] = conditions: PC:CH:SM (1:1:1, w/w) LUVs (10 μM) loaded with calcein; excitation 480 nm, emission 520 nm; various peptide concentrations
Procedure: as §5

E. coli ATCC 25922 = test: MIC, broth microdilution; assay type: cell-based, Escherichia coli; conditions: two-fold broth microdilution, LB, 2 × 10^5 CFU/mL, 37 °C, 18 h, read at 600 nm, three independent experiments
Procedure: as §4

A. baumannii 719705 [13] = test: Biofilm inhibition, crystal violet assay; assay type: cell-based, Acinetobacter baumannii; conditions: NB with 0.2% glucose, 24 h, 37 °C, 595 nm, highest concentration 25 μM
Procedure: as §1

| Compound | concentration that inhibited biofilm formation (A. baumannii KCTC 2508 [1]) [µM] | concentration that inhibited biofilm formation (A. baumannii 409081 [2]) [µM] | concentration that inhibited biofilm formation (A. baumannii #3 [3]) [µM] | biofilm reduction by SYTO 9 fluorescence imaging (A. baumannii biofilms) | MIC (B. cereus KCTC 1012) [µM] | MIC [7] [µM] | hemolytic activity (mouse red blood cells) | calcein leakage fluorescence (bioimaging) [8] | MIC (K. pneumoniae KCTC 2208) [µM] | MIC (P. aeruginosa ATCC 27853) [µM] | MIC (A. baumannii KCTC 2508 [9]) [µM] | MIC (S. aureus ATCC 29213) [µM] | MIC (S. aureus ATCC 25923) [µM] | MIC [10] [µM] | calcein release (fluorescence intensity) (Calcein leakage assay [11]) | calcein release (fluorescence intensity) (Calcein leakage assay [12]) | MIC (E. coli ATCC 25922) [µM] | also measured |
| --- | --- | --- | --- | --- | --- | --- | --- | --- | --- | --- | --- | --- | --- | --- | --- | --- | --- | --- |
| C[C@@H](O)[C@H]1C(=O)N2C(C(=O)O)=C(S[C@@H]3CN[C@H](C(=O)N(C)C)C3)[C@H](C)[C@H]12 [Meropenem, meropenem, reference compound] | 6.25 | ≥ 25 | ≥ 25 | did not decrease biofilm formation | – | – | – | – | – | – | – | – | – | – | – | – | – | MIC (A. baumannii 719705 [4]; Acinetobacter baumannii, 719705, 18 h): 100 µM (≈ 38.3 µg/mL); MIC (A. baumannii #2; Acinetobacter baumannii): 100 µM (≈ 38.3 µg/mL); MIC (A. baumannii 409081 [5]; Acinetobacter baumannii, 409081, 18 h): 200 µM (≈ 76.7 µg/mL); MIC (A. baumannii #4; Acinetobacter baumannii): 100 µM (≈ 38.3 µg/mL); MIC (A. baumannii #3 [6]; Acinetobacter baumannii): 50 µM (≈ 19.2 µg/mL); MIC (A. baumannii 907233; Acinetobacter baumannii, 907233, 18 h): 200 µM (≈ 76.7 µg/mL) |
| GILGKLWEGVKSIA-NH2 [Hp1404-A] | – | – | – | – | >25 | 25 | no hemolytic activity | no fluorescence was observed | >25 | >25 | 25 | >25 | 12.5 | >25 | did not release calcein | did not release calcein | >25 | Cell viability (HaCaT cells): 100% |
| GILGKLWEGVKSIK-NH2 [Hp1404-K] | – | – | – | – | >25 | 12.5 | no hemolytic activity | no fluorescence was observed | >25 | >25 | 25 | >25 | 25 | >25 | did not release calcein | did not release calcein | >25 | – |
| polymyxin B [reference compound] | 6.25 | 6.25 | 6.25 | did not decrease biofilm formation | – | – | – | – | – | – | – | – | – | – | – | – | – | concentration that inhibited biofilm formation (A. baumannii 719705 [13]): 6.25 µM; MIC (A. baumannii 719705 [4]; A. baumannii 719705 isolated from patient, broth microdilution, 37 °C, 18 h, three independent experiments): 0.78 µM; MIC (A. baumannii #2; A. baumannii #2 isolated from patient, broth microdilution, 37 °C, three independent experiments): 0.39 µM; MIC (A. baumannii 409081 [5]; A. baumannii 409081 isolated from patient, broth microdilution, 37 °C, 18 h, three independent experiments): 0.78 µM; MIC (A. baumannii #4; A. baumannii #4 isolated from patient, broth microdilution, 37 °C, three independent experiments): 0.39 µM; MIC (A. baumannii #3 [6]; A. baumannii #3 isolated from patient, broth microdilution, 37 °C, three independent experiments): 0.78 µM; MIC (A. baumannii 907233; A. baumannii 907233 isolated from patient, broth microdilution, 37 °C, 18 h, three independent experiments): 0.78 µM |
